Data published in patent US20220168310A1, “INHIBITION OF ADENOVIRUS WITH FILOCICLOVIR” (Microbiotix, Inc., priority 2019, published 2022).
Entries after “also recorded” stand apart in the source; their conditions may differ.

Tests used:
adenovirus 8 (AdV8) = test: CPE reduction assay, adenovirus 8; format: cell-based, human adenovirus; settings: unidentified adenovirus, unit not given in Table 2 (Table 1 in μM)
Procedure: (§1) Similar experiments were carried out with filociclovir against adenovirus 6, adenovirus 7, and adenovirus 8.

adenovirus 7 (AdV7) = test: CPE reduction assay, adenovirus 7; format: cell-based, human adenovirus
Procedure: as §1

adenovirus 6 (AdV6) = test: Neutral red survival assay, AdV6-infected A549 cells; format: cell-based, human adenovirus; settings: FIG. 2, A549 cells, 6 days post-infection
Excerpt: The neutral red cell cytotoxicity assay was used to detect cell viability or drug cytotoxicity. The principle of this assay is based on the detection of viable cells via the uptake of the dye neutral red. Neutral red is a eurhodin dye that stains lysosomes in viable cells. Viable cells can take up neutral red via active transport and incorporate the dye into their lysosomes, but non-viable cells are unable not take up this chromophore. Consequently, after washing, viable cells can release the incorporated dye under acidified-extracted conditions. The amount of released dye can be quantified and used to determine the total number of viable cells or drug cytotoxicity. As such, cytotoxicity is expressed as a concentration-dependent reduction of the uptake of neutral red after exposure to the compound under investigation.
The neutral red survival assays were carried out in a 96-well format. Briefly, A549 adenocarcinomic human alveolar basal epithelial cells were plated at a concentration of 6×10^3 cells per well one day prior to infection. AdV6 infections were carried out at 5×10^3 PFU per well (an estimated 0.5 PFU/cell at the time of infection). […] Filociclovir plates were read and the results were graphed using GraphPad Prism graphing and statistical software (GraphPad Software, San Diego, Calif.).

[1] = Pharmacokinetics of filociclovir in immunosuppressed hamsters; format: in vivo, Syrian hamsters; settings: 6 hours after administration
Procedure: In order to test the pharmacokinetics of filociclovir, we use a Syrian male hamster model of adenovirus infection. Syrian hamsters were given either an oral (p.o. 50 mg/kg) or intravenous (i.v. 10 mg/kg) dose of filociclovir. […] For i.v. administration, filociclovir was dissolved in DMSO (Sigma D2650) and then diluted with water to a final concentration of 5 mg/ml for filociclovir and 75% DMSO. The dosing solutions were prepared one day before use and stored at 4° C. Male Syrian hamsters were purchased from Envigo (Hackensack, N.J.) at ˜100 g body weight. […] The animals received three injections of CP before the administration of filociclovir. Two groups of animals (12 hamsters/group) were used for the two routes of administrations. In addition, three untreated animals (the same three hamsters for both routes) served as mock controls. The p.o. and i.v. experiments were performed on two consecutive days. As the hamsters weighed approximately 100 g, (+/−10%), they were administered 1 ml and 0.2 ml for the p.o. and i.v. routes, respectively, to achieve the desired dose. For both routes, 3 hamsters were sacrificed at 0.5, 1, 3, and 6 hr post dosing. […]

Human AdV6 = test: Low dose filociclovir against intravenously administered AdV6 in immunosuppressed hamsters (Example 6); settings: for AdV6-induced liver damage, serum transaminase (ALT) / AdV6 replication in the liver: 5 days post challenge; for AdV6 replication in the liver: TCID50
Procedure: Three dose levels were tested: 1, 3, and 10 mg/kg p.o. q.d.
All hamsters were immunosuppressed using cyclophosphamide (CP) administered intraperitoneally at a dose of 140 mg/kg, and then twice weekly at a dose of 100 mg/kg. Filociclovir in powdered form was suspended in 0.4% carboxymethyl cellulose (Sigma C5678) at 0.1, 0.3, and 1.0 mg/ml and sonicated to visual homogeneity. Filociclovir was made up once weekly, aliquoted into daily portions, and stored at 4° C. Aliquots were allowed to equilibrate to room temperature before dosing.
Hamsters were distributed into 7 groups, 15 hamsters/group (see Table 4), immunosuppressed as described above, and injected i.v. with vehicle (Groups 1-2) or 4×10^10 PFU/kg of AdV6 (Groups 3-7). Groups 1 and 3 received drug vehicle (p.o. q.d.), Groups 2 and 6 received 10 mg/kg filociclovir (p.o. q.d.), Group 4 received 3 mg/kg filociclovir (p.o. q.d.), Group 5 received 1 mg/kg filociclovir (p.o. q.d.), and Group 7 received cidofovir (one dose of 37 mg/kg, followed by 20 mg/kg doses 3 times weekly). For all groups, drug administration started 1 day before challenge, and continued according to the schedule above for the duration of the study.
The body weights and any signs of morbidity of the animals were monitored and recorded daily. At 5 days post challenge, 5 hamsters (designated at the start of the experiment) from each group were sacrificed, and gross pathological observation was performed. Serum and liver were collected and virus burden in liver was determined by TCID50 assay and the serum was analyzed for transaminase levels. The remaining 10 hamsters were sacrificed at 14 days post challenge. Hamsters that became moribund before Day 14 were sacrificed as needed. In addition to the animals judged moribund by observation, we sacrificed all hamsters that lost more than 20% of their original body weight. For all animals, liver tissue was preserved in formalin for histopathological examination.

adenovirus 4 (AdV4) = test: Efficacy against adenovirus 4 (data not shown)
[2] = 10 mg/kg q.d., listed as filociclovir

Structure (SMILES): Nc1nc2c(ncn2/C=C2/CC2(CO)CO)c(=O)[nH]1 [FCV, 2-amino-9-{(Z)-[2,2-bis(hydroxymethyl)cyclopropylidene]methyl}-3,9-dihydro-6H-purin-6-one]
- EC50 (adenovirus 8 (AdV8)): 2.45 µM
- CC50/EC50 (adenovirus 7 (AdV7)): >144
- EC50 (adenovirus 7 (AdV7); Human mastadenovirus B, unit not given in Table 2 (Table 1 in μM)): 1.04 µM
- concentration as low as which is effective to improve viability of AdV6 infected cells (adenovirus 6 (AdV6)): 10^−1 μM
- detectability after administration ([1]; i.v. 10 mg/kg): still detectable
- detectability after administration ([1]; p.o. 50 mg/kg): still detectable
- mortality (Human AdV6; 1 mg/kg p.o. q.d., p=0.0449): moderate yet significant
- AdV6-induced liver damage, serum transaminase (ALT) (Human AdV6; 1 mg/kg q.d., listed as Filociclovir): ineffective
- AdV6-induced liver damage, serum transaminase (ALT) (Human AdV6; 1 mg/kg q.d., listed as filociclovir): largely ineffective
- body weight loss (Human AdV6; 1 mg/kg, listed as Filociclovir): not efficacious
- body weight loss (Human AdV6; 1 mg/kg, listed as filociclovir): unable to mitigate weight loss
- mortality (Human AdV6; 3 mg/kg q.d. p.o.): completely prevented mortality
- AdV6 replication in the liver (Human AdV6; 3 mg/kg q.d. p.o., listed as filociclovir): suppressed virus replication to an intermediate level; also recorded: inhibits AdV6 replication in the liver
- AdV6-induced liver damage, serum transaminase (ALT) (Human AdV6; 3 mg/kg, p=0.0419, listed as Filociclovir): mitigated the pathology
- AdV6-induced liver damage, serum transaminase (ALT) (Human AdV6; 3 mg/kg, p=0.0419, listed as filociclovir): moderate yet significant effect
- body weight loss (Human AdV6; 3 mg/kg, listed as Filociclovir): moderately efficacious
- body weight loss (Human AdV6; 3 mg/kg, listed as filociclovir): partially reversed
- mortality (Human AdV6; 10 mg/kg q.d. p.o.): completely prevented mortality
- AdV6 replication in the liver (Human AdV6; [2]): inhibits AdV6 replication in the liver
- AdV6-induced liver damage, serum transaminase (ALT) (Human AdV6; 10 mg/kg q.d., listed as Filociclovir): mitigated the pathology
- AdV6-induced liver damage, serum transaminase (ALT) (Human AdV6; [2]): prevented AdV6-induced liver damage
- body weight of uninfected hamsters (Human AdV6; 10 mg/kg, uninfected): did not result in body weight loss
- body weight loss (Human AdV6; 10 mg/kg, listed as Filociclovir): completely prevented body weight loss
- body weight loss (Human AdV6; 10 mg/kg, listed as filociclovir): completely reversed
- toxic effects in treated hamsters (Human AdV6; 1, 3, 10 mg/kg p.o. q.d.): No toxic effects were observed
- treatment-related deaths (Human AdV6; AdV6+1 mg/kg group (9 in AdV6+Vehicle)): 5
- hamsters with mottled liver and enlarged gall bladder (Human AdV6; AdV6+1 mg/kg, Day 5 sacrifice (4 in AdV6+Vehicle)): 3
- treat or prevent infection (adenovirus 4 (AdV4)): effective
